Where two headings read alike, the source gives them in different places.
Experiments:
Thioredoxin Reductase = biological target: T1, Thioredoxin Reductase (Bos taurus, UniProt O62768); assay: NADPH oxidation at 340 nm, thioredoxin reductase only; assay type: biochemical, bovine; settings: Disulfide 0.5 mM; minimum of triplicate assays
T1 sequence (O62768 1-499): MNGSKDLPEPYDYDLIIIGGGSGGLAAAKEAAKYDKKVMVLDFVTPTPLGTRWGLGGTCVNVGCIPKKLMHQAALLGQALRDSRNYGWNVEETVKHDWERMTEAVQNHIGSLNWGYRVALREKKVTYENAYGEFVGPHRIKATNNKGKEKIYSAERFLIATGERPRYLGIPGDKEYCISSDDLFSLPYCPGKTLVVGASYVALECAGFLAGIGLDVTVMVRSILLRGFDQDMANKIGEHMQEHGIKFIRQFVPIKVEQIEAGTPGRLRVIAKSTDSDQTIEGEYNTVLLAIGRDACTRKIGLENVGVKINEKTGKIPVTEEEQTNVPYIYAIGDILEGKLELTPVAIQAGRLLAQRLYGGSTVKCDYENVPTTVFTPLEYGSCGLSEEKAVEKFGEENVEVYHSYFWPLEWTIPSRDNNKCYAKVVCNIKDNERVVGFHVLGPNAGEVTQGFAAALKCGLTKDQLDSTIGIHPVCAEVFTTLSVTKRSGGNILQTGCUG
Description: (§1) Biochemistry 21:6628-6633 (1982).
(§2) Data was then collected and plotted in Microsoft Excel. Error calculations, and graphical representations were performed in Microsoft Excel and Kaleidograph (ver. 3.5). Nonlinear data was graphically rendered using Kaleidograph. ANOVA and other statistical analyses were performed using SAS (ver. 8.2). Unless otherwise noted, significance level was set at 0.05, and error bars represent actual experimental standard deviation.
(§3) It should be noted that for the purposes of FIG. 17 only, thioredoxin is labeled TXR and thioredoxin reductase is labeled TRR.

[1] = biological target: T2, Thioredoxin Reductase + Thioredoxin (Bos taurus, UniProt O97680); assay: NADPH oxidation at 340 nm, coupled thioredoxin (TX)/thioredoxin reductase (TXR)/NADPH system; assay type: biochemical, bovine; settings: Disulfide 0.5 mM; minimum of triplicate assays
T2 sequence (O97680 1-105): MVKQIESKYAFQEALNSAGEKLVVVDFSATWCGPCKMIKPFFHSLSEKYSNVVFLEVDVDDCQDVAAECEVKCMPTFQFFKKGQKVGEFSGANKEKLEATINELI
Description: as §1, §2, §3
Table 4, below, illustrates that various Formula (I) compounds (i.e., disulfide-containing compounds) of the present invention can serve as alternate substrate inhibitors for the coupled thioredoxin (TX)/thioredoxin reductase (TXR)/NADPH system as measured by the oxidation of NADPH. In Table 4, the Formula (I) compounds were utilized at a concentration of 0.5 mM.

[2] = biological target: T3, glutathione reductase (GR) (Homo sapiens, UniProt P00390); assay: NADPH oxidation, glutathione reductase (GR) alone; assay type: biochemical; settings: for NADPH Oxidation, GR: Disulfide 0.5 mM, n = 6
T3 sequence (P00390 44-522): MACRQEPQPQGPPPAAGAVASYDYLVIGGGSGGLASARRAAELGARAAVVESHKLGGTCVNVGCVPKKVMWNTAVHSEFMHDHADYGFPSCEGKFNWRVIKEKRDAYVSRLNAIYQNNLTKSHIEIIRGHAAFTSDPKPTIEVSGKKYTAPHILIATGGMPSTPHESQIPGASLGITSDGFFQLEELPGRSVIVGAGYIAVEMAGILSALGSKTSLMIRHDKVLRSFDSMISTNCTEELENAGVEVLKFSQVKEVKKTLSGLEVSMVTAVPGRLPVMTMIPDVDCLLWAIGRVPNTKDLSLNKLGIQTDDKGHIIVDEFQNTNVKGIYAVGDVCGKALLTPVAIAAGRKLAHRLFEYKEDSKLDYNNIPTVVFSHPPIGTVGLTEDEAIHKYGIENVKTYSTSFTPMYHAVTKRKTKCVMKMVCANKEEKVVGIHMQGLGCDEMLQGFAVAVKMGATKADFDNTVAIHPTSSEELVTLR
Description: (§4) The Formula (I) compound was utilized at a concentration of 0.5 mM.

GR + GSH = biological target: T4, GR + GSH (Homo sapiens, UniProt P00390); assay: NADPH oxidation, GR + GSH; assay type: biochemical; settings: Disulfide 0.5 mM; n = 6
T4 sequence (P00390 44-522): T3 sequence (P00390 44-522)
Description: as §4

[3] = biological target: T5, GR + GRX + GSH (coupled glutaredoxin/glutathione/glutathione reductase system) (Homo sapiens, UniProt P35754); assay: NADPH oxidation, coupled GRX/GSH/GR system; assay type: biochemical; settings: Disulfide 0.5 mM; n = 6
T5 sequence (P35754 1-106): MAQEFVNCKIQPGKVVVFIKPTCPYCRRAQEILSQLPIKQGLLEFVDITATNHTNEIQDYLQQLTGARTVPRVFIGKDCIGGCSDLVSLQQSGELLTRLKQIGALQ
Description: as §4

[4] = system: mammalian thioredoxin reductase (TXR); settings: cited from earlier work
[5] = biological target: T3, glutathione reductase (GR); settings: cited from earlier work
[6] = system: cellular ribonucleotide reductase in human cancer cells; settings: literature; cited from earlier work
whole cells = assay: whole cell mediated disulfide reduction (α-lipoic acid, hydroxyethyldisulfide); assay type: cell-based; settings: mesna in combination with cisplatin
[7] = system: non-small cell lung carcinoma (NSCLC) cell lines; assay: cytotoxicity study in combination with chemotherapeutic agents, NSCLC cell lines; assay type: cell-based, human
[8] = system: ovarian cancer cell lines; assay: cytotoxicity study in combination with oxaliplatin, ovarian cancer cell lines; assay type: cell-based, human; settings: mesna 100 μM in combination with oxaliplatin vs oxaliplatin alone controls
brain cancer cells = assay: cytotoxicity study in combination with oxaliplatin, brain cancer cells; assay type: cell-based, human; settings: oxaliplatin and mesna, observable but not statistically significant
[9] = literature studies, result in words

N[C@@H](CSSCCS(=O)(=O)O)C(=O)NCC(=O)O [BNP7776]
NADPH Oxidation, Thioredoxin Reductase only (Thioredoxin Reductase): 0.2 ± .04 nmol/min/mL | NADPH Oxidation, Thioredoxin Reductase + Thioredoxin [1]: 15.8 ± 0.3 nmol/min/mL | NADPH Oxidation, GR [2]: 0.0 ± 0.7 nmol/min/mL | NADPH Oxidation, GR + GSH (GR + GSH): 4.1 ± 1.0 nmol/min/mL | NADPH Oxidation, GR + GRX + GSH [3]: 22.0 ± 0.5 nmol/min/mL

NC(CCSSCCS(=O)(=O)O)C(=O)O (stereo not shown) [BNP7768]
NADPH Oxidation, Thioredoxin Reductase only (Thioredoxin Reductase): 0.0 ± 0.03 nmol/min/mL | NADPH Oxidation, Thioredoxin Reductase + Thioredoxin [1]: 8.6 ± 0.06 nmol/min/mL | NADPH Oxidation, GR [2]: 0.16 ± 0.96 nmol/min/mL | NADPH Oxidation, GR + GSH (GR + GSH): 0.88 ± 0.2 nmol/min/mL | NADPH Oxidation, GR + GRX + GSH [3]: 10.7 ± 0.7 nmol/min/mL

N.N.O=C([O-])C1(C(=O)[O-])CCC1.[Pt+2] [carboplatin]
inhibition of TXR [4, 9]: could not inhibit | inhibition of GR [5, 9]: could not inhibit

N[C@@H](Cc1ccc(N(CCCl)CCCl)cc1)C(=O)O [melphalan]
inhibition of TXR [4, 9]: irreversibly inhibited | inhibition of GR [5, 9]: not GR

N.N.[Cl][Pt][Cl] [cisplatin, cis-diamminedichloroplatinum]
inhibition of TXR [4, 9]: irreversibly inhibited | inhibition of GR [5, 9]: not GR

COc1cccc2c1C(=O)c1c(O)c3c(c(O)c1C2=O)C[C@@](O)(C(=O)CO)C[C@@H]3O[C@H]1C[C@H](N)[C@H](O)[C@H](C)O1 [doxorubicin]
inhibition of TXR [4, 9]: not inhibitors | inhibition of the TR/TXR system resulting in inhibition of cellular ribonucleotide reductase activity [6]: concentration-dependent inhibition

O=C(O)CCCc1ccc(N(CCCl)CCCl)cc1 [chlorambucil]
inhibition of TXR [4, 9]: irreversibly inhibited | inhibition of GR [5, 9]: not GR

CS(=O)(=O)OCCCCOS(C)(=O)=O [busulfan]
inhibition of TXR [4, 9]: irreversibly inhibited | inhibition of GR [5, 9]: not GR

N[C@@H](CCC(=O)N[C@@H](CSSCCS(=O)(=O)O)C(=O)NCC(=O)O)C(=O)O [BNP7772]
NADPH Oxidation, Thioredoxin Reductase only (Thioredoxin Reductase): 0.3 ± 0.02 nmol/min/mL | NADPH Oxidation, Thioredoxin Reductase + Thioredoxin [1]: 14.1 ± 0.1 nmol/min/mL | NADPH Oxidation, GR [2]: 8.0 ± 0.6 nmol/min/mL | substrate / alternative substrate inhibitor for glutathione reductase ([2]; result in words): functions as an alternative substrate inhibitor | NADPH Oxidation, GR + GSH (GR + GSH): 11.3 ± 0.8 nmol/min/mL | NADPH Oxidation, GR + GRX + GSH [3]: 71.0 ± 7.9 nmol/min/mL

O=P1(NCCCl)OCCCN1CCCl (stereo not shown) [ifosfamide]
inhibition of TXR [4, 9]: inhibited

CC1=C(/C=C/C(C)=C/C=C/C(C)=C\C(=O)O)C(C)(C)CCC1 [13-cis-retinoic acid]
inhibition of TXR [4, 9]: irreversible inhibition

CCOC(=O)NC1=C(N2CC2)C(=O)C(NC(=O)OCC)=C(N2CC2)C1=O [Diaziquone]
inhibition of the TR/TXR system resulting in inhibition of cellular ribonucleotide reductase activity [6]: concentration-dependent inhibition

O=NN(CCCl)C(=O)NCCCl [carmustine]
inhibition of TXR [4, 9]: can inhibit | inhibition of GR [5, 9]: can inhibit

COc1cccc2c1C(=O)c1c(O)c3c(c(O)c1C2=O)C[C@@](O)(C(C)=O)C[C@@H]3O[C@H]1C[C@H](N)[C@H](O)[C@H](C)O1 [daunorubicin]
inhibition of TXR [4]: not inhibitors

N.N.[Cl][Pt+2][Cl] [transplatin]
inhibition of TXR [4]: irreversibly inhibited | inhibition of GR [5]: not GR

O=S(=O)([O-])CCS.[Na+] [mesna, 2-mercapto ethane sulfonate sodium]
reduction of α-lipoic acid (TX/TXR substrate) or hydroxyethyldisulfide (GRX substrate) by whole cells (whole cells): enhanced | cytotoxic effect of oxaliplatin ([7]; mesna 100 μM in combination with oxaliplatin vs oxaliplatin alone controls): markedly enhanced | cytotoxic effect of paclitaxel ([7]; mesna 100 μM in combination with paclitaxel vs paclitaxel alone controls): enhanced | cytotoxic effect of oxaliplatin [8]: markedly enhanced | oxaliplatin cytotoxicity (brain cancer cells): lesser increase

NC(CCC(=O)NC(CSSCCS(=O)(=O)O)C(=O)O)C(=O)O (stereo not shown) [BNP7774]
NADPH Oxidation, Thioredoxin Reductase only (Thioredoxin Reductase): 0.3 ± 0.02 nmol/min/mL | NADPH Oxidation, Thioredoxin Reductase + Thioredoxin [1]: 9.6 ± 0.2 nmol/min/mL | NADPH Oxidation, GR [2]: 0.04 ± 0.12 nmol/min/mL | NADPH Oxidation, GR + GSH (GR + GSH): 2.4 ± 0.7 nmol/min/mL | NADPH Oxidation, GR + GRX + GSH [3]: 37.0 ± 2.1 nmol/min/mL

NC(CSSCCS(=O)(=O)O)C(=O)O (stereo not shown) [BNP7766]
NADPH Oxidation, Thioredoxin Reductase only (Thioredoxin Reductase): 0.2 ± 0.03 nmol/min/mL | NADPH Oxidation, Thioredoxin Reductase + Thioredoxin [1]: 14.4 ± 0.2 nmol/min/mL | NADPH Oxidation, GR [2]: 0.0 ± 0.01 nmol/min/mL | NADPH Oxidation, GR + GSH (GR + GSH): 4.1 ± 1.3 nmol/min/mL | NADPH Oxidation, GR + GRX + GSH [3]: 28.3 ± 2.0 nmol/min/mL

O=P1(N(CCCl)CCCl)NCCCO1 (stereo not shown) [cyclophosphamide]
inhibition of TXR [4, 9]: irreversibly inhibited | inhibition of GR [5, 9]: not GR

O=C(O)C(=O)O.[NH-][C@@H]1CCCC[C@H]1[NH-].[Pt+2] [oxaliplatin]
inhibition of TXR [4]: irreversibly inhibited | inhibition of GR [5]: not GR

Source: US9320760B2, “Compositions and methods of use of compounds to increase cancer patient survival time” (BioNumerik Pharmaceuticals, Inc., priority 2008, dated 2016)
